Changes are numbered by the printed parent chain. Values belong to the molecule of their own block, whether it stands above or below them.
What was measured:
Experiment in all cases: two-electrode voltage clamp, Xenopus oocytes
[1] = tested on: T1, X1-CX4; type: cell-based, Homo sapiens; Rattus norvegicus; settings: ND96 with Ba2+, -60 mV
T1 construct: gene P2RX1; hP2X1 with residues 185-261 (hP2X1 numbering) replaced by the corresponding rP2X4 segment; Xenopus oocytes
Excerpt: two-electrode voltage clamp, Xenopus oocytes on X1-CX4

[2] = tested on: T2, X1-DX4; type: cell-based, Homo sapiens; Rattus norvegicus; settings: ND96 with Ba2+, -60 mV
T2 construct: gene P2RX1; hP2X1 with residues 262-330 (hP2X1 numbering) replaced by the corresponding rP2X4 segment; Xenopus oocytes
Excerpt: two-electrode voltage clamp, Xenopus oocytes on X1-DX4

[3] = tested on: T3, X1-CϵX4; type: cell-based, Homo sapiens; Rattus norvegicus; settings: agonist; 3 s application; ND96 with Ba2+, -60 mV
T3 construct: gene P2RX1; hP2X1 with residues 221-226 replaced by the corresponding rP2X4 segment; Xenopus oocytes
Excerpt: two-electrode voltage clamp, Xenopus oocytes on X1-CϵX4

[4] = tested on: T4, X1-CβX4; type: cell-based, Homo sapiens; Rattus norvegicus; settings: agonist; 3 s application; ND96 with Ba2+, -60 mV
T4 construct: gene P2RX1; hP2X1 with residues 232-261 replaced by the corresponding rP2X4 segment; Xenopus oocytes
Excerpt: two-electrode voltage clamp, Xenopus oocytes on X1-CβX4

[5] = molecular target: T5, rP2X4 receptor (Rattus norvegicus, UniProt P51577, Y378A); type: cell-based
T5 construct: gene P2rx4; homotrimer; cRNA expressed in Xenopus laevis oocytes
T5 sequence (P51577 1-388 Y378A): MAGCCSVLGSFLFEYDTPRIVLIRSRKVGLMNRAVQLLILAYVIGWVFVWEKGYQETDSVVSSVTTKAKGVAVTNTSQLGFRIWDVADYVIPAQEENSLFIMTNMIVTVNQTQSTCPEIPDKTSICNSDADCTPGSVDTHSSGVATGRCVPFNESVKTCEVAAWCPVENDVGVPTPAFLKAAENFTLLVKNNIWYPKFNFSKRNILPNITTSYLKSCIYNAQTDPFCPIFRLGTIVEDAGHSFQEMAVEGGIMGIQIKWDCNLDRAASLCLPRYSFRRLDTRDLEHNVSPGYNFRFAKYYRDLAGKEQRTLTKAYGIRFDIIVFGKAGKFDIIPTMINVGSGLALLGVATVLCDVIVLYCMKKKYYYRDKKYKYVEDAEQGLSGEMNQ
Excerpt: two-electrode voltage clamp, Xenopus oocytes on rP2X4 receptor

[6] = tested on: T6, X1-CζX4; type: cell-based, Homo sapiens; Rattus norvegicus; settings: agonist; 3 s application; ND96 with Ba2+, -60 mV
T6 construct: gene P2RX1; hP2X1 with residues 227-231 replaced by the corresponding rP2X4 segment; Xenopus oocytes
Excerpt: two-electrode voltage clamp, Xenopus oocytes on X1-CζX4

[7] = tested on: T7, X1-BX4; type: cell-based, Homo sapiens; Rattus norvegicus; settings: ND96 with Ba2+, -60 mV
T7 construct: gene P2RX1; hP2X1 with residues 133-184 (hP2X1 numbering) replaced by the corresponding rP2X4 segment; Xenopus oocytes
Excerpt: two-electrode voltage clamp, Xenopus oocytes on X1-BX4

[8] = tested on: T7, X1-BX4; type: cell-based, Homo sapiens; Rattus norvegicus; settings: agonist; 3 s application; ND96 with Ba2+, -60 mV
[9] = tested on: T8, X1-CγX4; type: cell-based, Homo sapiens; Rattus norvegicus; settings: agonist; 3 s application; ND96 with Ba2+, -60 mV
T8 construct: gene P2RX1; hP2X1 with residues 210-215 replaced by the corresponding rP2X4 segment; Xenopus oocytes
Excerpt: two-electrode voltage clamp, Xenopus oocytes on X1-CγX4

[10] = tested on: T9, X1-AX4; type: cell-based, Homo sapiens; Rattus norvegicus; settings: ND96 with Ba2+, -60 mV
T9 construct: gene P2RX1; hP2X1 with residues 63-132 replaced by the corresponding rP2X4 segment (63-133); Xenopus oocytes
Excerpt: two-electrode voltage clamp, Xenopus oocytes on X1-AX4

[11] = molecular target: T10, hP2X1 receptor (Homo sapiens, UniProt P51575); type: cell-based
T10 construct: gene P2RX1; full-length cDNA cloned from bladder; homotrimer; cRNA expressed in Xenopus laevis oocytes
T10 sequence (P51575 1-399): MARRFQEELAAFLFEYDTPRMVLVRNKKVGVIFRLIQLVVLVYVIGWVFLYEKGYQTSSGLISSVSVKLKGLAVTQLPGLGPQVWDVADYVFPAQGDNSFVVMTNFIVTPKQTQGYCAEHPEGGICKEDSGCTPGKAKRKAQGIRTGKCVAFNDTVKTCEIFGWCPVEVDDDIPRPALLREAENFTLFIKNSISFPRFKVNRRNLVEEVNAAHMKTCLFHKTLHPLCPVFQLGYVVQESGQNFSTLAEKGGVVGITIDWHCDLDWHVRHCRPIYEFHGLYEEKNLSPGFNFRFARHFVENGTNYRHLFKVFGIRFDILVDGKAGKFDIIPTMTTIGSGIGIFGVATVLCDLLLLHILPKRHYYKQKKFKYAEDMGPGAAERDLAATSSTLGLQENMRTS
Excerpt: two-electrode voltage clamp, Xenopus oocytes on hP2X1 receptor

[12] = tested on: T11, X1-CαX4; type: cell-based, Homo sapiens; Rattus norvegicus; settings: agonist; 3 s application; ND96 with Ba2+, -60 mV
T11 construct: gene P2RX1; text says 184-209) replaced by the corresponding rP2X4 segment; Xenopus oocytes
Excerpt: two-electrode voltage clamp, Xenopus oocytes on X1-CαX4

[13] = tested on: T12, X1-CδX4; type: cell-based, Homo sapiens; Rattus norvegicus; settings: agonist; 3 s application; ND96 with Ba2+, -60 mV
T12 construct: gene P2RX1; hP2X1 with residues 216-220 replaced by the corresponding rP2X4 segment; Xenopus oocytes
Excerpt: two-electrode voltage clamp, Xenopus oocytes on X1-CδX4

[14] = molecular target: T13, rP2X4 receptor (Rattus norvegicus, UniProt P51577, D138K/H140K/S136K/T139R/Y378A); type: cell-based; settings: read-out: % of control at 1 μM
T13 construct: gene P2rx4; homotrimer; cRNA expressed in Xenopus laevis oocytes
T13 sequence (P51577 1-388 S136K/D138K/T139R/H140K/Y378A): T5 sequence (P51577 1-388 Y378A) with S136K, D138K, T139R, H140K

[15] = tested on: T7, X1-BX4; type: cell-based, Homo sapiens; Rattus norvegicus; settings: antagonist at EC90 of ATP; 5 min preincubation; ND96 with Ba2+, -60 mV
[16] = read-out: ATP / pEC50 (converted)
[17] = antagonist at EC90 of ATP, 5 min preincubation

- ATP / pEC50 ([1]; agonist, 3 s application): 6.17 ± 0.13
- ATP / pEC50 ([2]; agonist, 3 s application): 5.08 ± 0.04
- ATP / pEC50 [3]: 5.68 ± 0.06
- ATP / pEC50 [4]: 5.30 ± 0.06
- EC50 [5, 16]: 4.07 µM
- ATP / pEC50 [6]: 5.54 ± 0.06
- ATP / pEC50 ([7]; agonist, 3 s application): 4.28 ± 0.04
- pEC50 [8]: 3.6 ± 0.1
- ATP / pEC50 [9]: 5.71 ± 0.06
- ATP / pEC50 ([10]; agonist, 3 s application): 4.43 ± 0.08
- EC50 [11, 16]: 0.49 µM
- ATP / pEC50 [12]: 5.34 ± 0.05
- ATP / pEC50 [13]: 5.21 ± 0.04
SMILES: Nc1ncnc2c1ncn2[C@@H]1O[C@H](COP(=O)(O)OP(=O)(O)OP(=O)(O)O)[C@@H](O)[C@H]1O [ATP]

- IC50 [5]: > 1 µM
- remaining activity at 1 µM [14]: 104 ± 5.3%
- pIC50 [15]: 9.28 ± 0.05
SMILES: O=C(Nc1cc(C(=O)Nc2ccc(S(=O)(=O)O)cc2S(=O)(=O)O)cc(C(=O)Nc2ccc(S(=O)(=O)O)cc2S(=O)(=O)O)c1)Nc1cc(C(=O)Nc2ccc(S(=O)(=O)O)cc2S(=O)(=O)O)cc(C(=O)Nc2ccc(S(=O)(=O)O)cc2S(=O)(=O)O)c1 [NF449, 4,4′,4″,4‴-(carbonylbis(imino-5,1,3-benzenetriylbis(carbonylimino)))tetrakisbenzene-1,3-disulfonic acid]

- PPADS / pIC50 [1, 17]: 5.47 ± 0.12
- PPADS / pIC50 [2, 17]: 6.95 ± 0.07
- IC50 [5]: > 100 µM
- PPADS / pIC50 [7, 17]: 5.24 ± 0.12
- PPADS / pIC50 [10, 17]: 6.18 ± 0.02
- IC50 ([11]; read-out: PPADS / pIC50 (converted)): 1.58 µM
SMILES: Cc1nc(N=Nc2ccc(S(=O)(=O)O)cc2S(=O)(=O)O)c(COP(=O)(O)O)c(C=O)c1O [PPADS, pyridoxal-phosphate-6-azophenyl-2,4-disulfonate]

- IC50 [5]: > 100 µM
SMILES: Cc1ccc(C(=O)Nc2ccc(S(=O)(=O)O)c3cc(S(=O)(=O)O)cc(S(=O)(=O)O)c23)cc1NC(=O)c1cccc(NC(=O)Nc2cccc(C(=O)Nc3cc(C(=O)Nc4ccc(S(=O)(=O)O)c5cc(S(=O)(=O)O)cc(S(=O)(=O)O)c45)ccc3C)c2)c1 [Suramin]
